Experimental findings from PubChem BioAssay AID298 (DTP/NCI, 2004) are described below.

Where “and” joins values, the source holds several entries; their conditions need not be identical. Equal entries are not always repeated. Inconclusive results are not listed.

This assay relates to MX-1 breast xenograft, intrarenal, nude mice, tumor weight. Nature of the assay: NCI In Vivo Anticancer Drug Screen. Data for tumor model Human Mammary Carcinoma MX-1 Xenograft (intrarenal inoculation) in NU/NU BALB/C (nude) mice. The note with it: endpoint: mean tumor weight change, higher = larger tumour. The procedure, abridged:
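Compounds were given to mice carrying transplanted tumors, and tumor size or survival was measured. Each value is the treated-group measurement (T) divided by the vehicle-treated control-group measurement (C).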
For orientation: In xenograft studies the graft and the host belong to different species.

Setting [1] is: dose: 50.0 mg/kg/injection, schedule: Q04DX003 (ip), vehicle: saline with Tween-80.
Setting [2] is: dose: 100.0 mg/kg/injection, schedule: Q04DX003 (ip), vehicle: saline with Tween-80.

On to `C1CCC2C[N-]CCC2C1.C1CCC2C[N-]CCC2C1.C1CCC2C[N-]CCC2C1.C1CCC2C[N-]CCC2C1.[Cl][Rh][Cl]` (stereo not drawn), for which the T/C was 112 % of control (dose: 72.0 mg/kg/injection, schedule: Q04DX003 (sc), vehicle: saline with Tween-80); 124 % of control (dose: 144.0 mg/kg/injection, schedule: Q04DX003 (sc), vehicle: saline with Tween-80); 67 % of control (dose: 576.0 mg/kg/injection, schedule: Q04DX003 (sc), vehicle: saline with Tween-80).

As for `CNC=O`, the T/C by setting is: (dose: 100.0 mg/kg/injection, schedule: Q01DX010 (sc), vehicle: saline) 47 % of control; (dose: 200.0 mg/kg/injection, schedule: Q01DX010 (sc), vehicle: saline) 10 % of control.

On to `CC(C)N1C(=O)N(Cl)C2C1N(Cl)C(=O)N2Cl` (stereo not drawn), for which the T/C (dose: 25.0 mg/kg/injection, schedule: Q04DX003 (ip), vehicle: saline with Tween-80) was 113 % of control.

As to `Cc1nc(N)nc(N)c1N1CCN(c2ccc(C(=O)NC(C(=O)O)C(=O)O)cc2)CC1`, the T/C is 63 % of control (dose: 7.5 mg/kg/injection, schedule: Q04DX003 (ip), vehicle: Klucel + Tween-80); 76 % of control (dose: 15.0 mg/kg/injection, schedule: Q04DX003 (ip), vehicle: Klucel + Tween-80); 76 % of control (dose: 30.0 mg/kg/injection, schedule: Q04DX003 (ip), vehicle: Klucel + Tween-80); 82 % of control (dose: 60.0 mg/kg/injection, schedule: Q04DX003 (ip), vehicle: Klucel + Tween-80).

As to `COC1C(N)C(OC2C(Oc3cccc4c(O)c5c(=O)oc6ccc(C)c7c(=O)oc(c34)c5c67)OC(C)C(O)C2(C)O)OC(C)C1O` (stereo not drawn), the T/C is, setting by setting: (dose: 2.5 mg/kg/injection, schedule: Q04DX003 (ip), vehicle: lactic acid) 90 % of control; (dose: 10.0 mg/kg/injection, schedule: Q04DX003 (ip), vehicle: lactic acid) 6 % of control.

For the molecule `COc1cccc2c1C(=O)C1=C(C2=O)c2c(O)cc(CO)cc2C(O)C1O` (stereo not drawn), the T/C was 84 % of control (dose: 6.25 mg/kg/injection, schedule: Q04DX003 (ip), vehicle: other); 102 % of control (dose: 12.5 mg/kg/injection, schedule: Q04DX003 (ip), vehicle: other); 96 % of control (dose: 25.0 mg/kg/injection, schedule: Q04DX003 (ip), vehicle: other).

Consider `Cc1ccc(C(=Nc2ccccc2)N=P(c2ccccc2)(c2ccccc2)c2ccccc2)cc1`, for which the T/C reads like this: under setting [1], 68 % of control; under setting [2], 45 % of control.

With `CC(C)c1cc(C(=O)O)c(O)c(C(C)C)c1.CC(C)c1cc(C(=O)O)c(O)c(C(C)C)c1.[Cu]`, the T/C by setting is: (dose: 12.5 mg/kg/injection, schedule: Q04DX003 (ip), vehicle: saline with Tween-80) 74 % of control; under setting [1], 116 % of control; under setting [2], 90 % of control.

Regarding `CNC(=O)Oc1ccc(S(=O)(=O)c2ccc(OC(=O)NC)cc2)cc1`, the T/C (dose: 150.0 mg/kg/injection, schedule: Q04DX003 (ip), vehicle: saline with Tween-80) was 98 % of control; the T/C (dose: 300.0 mg/kg/injection, schedule: Q04DX003 (ip), vehicle: saline with Tween-80) was 89 % of control; the T/C (dose: 600.0 mg/kg/injection, schedule: Q04DX003 (ip), vehicle: saline with Tween-80) is 33 % of control.

On to `CC(=O)C[n+]1ccc(C)cc1Sc1ccccc1C`, for which the T/C reads like this: (dose: 15.0 mg/kg/injection, schedule: Q04DX003 (ip), vehicle: suspension in saline) 111 % of control; (dose: 30.0 mg/kg/injection, schedule: Q04DX003 (ip), vehicle: suspension in saline) 97 % of control; (dose: 60.0 mg/kg/injection, schedule: Q04DX003 (ip), vehicle: suspension in saline) 80 % of control; (dose: 120.0 mg/kg/injection, schedule: Q04DX003 (ip), vehicle: suspension in saline) 102 % of control.

With `CC(=O)C(=O)O.CC(=O)C(=O)O.[NH-]C1CCCCC1[NH-].[Pt+2]` (stereo not drawn), the T/C runs as follows: (dose: 12.5 mg/kg/injection, schedule: Q04DX003 (sc), vehicle: other) 72 % of control; (dose: 25.0 mg/kg/injection, schedule: Q04DX003 (sc), vehicle: other) 17 % of control; (dose: 50.0 mg/kg/injection, schedule: Q04DX003 (sc), vehicle: other) -78 % of control.

As to `CN(N=O)C(=O)N[C@@H](C=O)[C@@H](O)[C@H](O)[C@H](O)CO`, the T/C was 193 % of control (dose: 37.0 mg/kg/injection, schedule: Q04DX003 (ip), vehicle: other); 117 % of control (dose: 75.0 mg/kg/injection, schedule: Q04DX003 (ip), vehicle: other); 70 % of control (dose: 150.0 mg/kg/injection, schedule: Q04DX003 (ip), vehicle: other); 63 % of control (dose: 150.0 mg/kg/injection, schedule: Q04DX003 (sc), vehicle: saline).

On to `Nc1nc2ncn(O)c2c(=O)[nH]1`, for which the T/C by setting is: (dose: 25.0 mg/kg/injection, schedule: Q04DX003 (ip), vehicle: water) 25 % of control and 41 % of control; (dose: 50.0 mg/kg/injection, schedule: Q04DX003 (ip), vehicle: water) 13 % of control.

On to `CC(C)(O)/C=C/C(=O)[C@](C)(O)[C@H]1[C@H](O)C[C@@]2(C)[C@@H]3CC=C4[C@@H](C=C(O)C(=O)C4(C)C)[C@]3(C)C(=O)C[C@]12C`, for which the T/C was 155 % of control (dose: 0.25 mg/kg/injection, schedule: Q04DX003 (ip), vehicle: water); 118 % of control (dose: 0.5 mg/kg/injection, schedule: Q04DX003 (ip), vehicle: water); 122 % of control (dose: 1.0 mg/kg/injection, schedule: Q04DX003 (ip), vehicle: water); 86 % of control (dose: 2.0 mg/kg/injection, schedule: Q04DX003 (ip), vehicle: water).

Turning to `O=S(=O)(c1cccc(N=C=S)c1)c1cccc(N=C=S)c1`, the T/C by setting is: (dose: 50.0 mg/kg/injection, schedule: Q04DX003 (ip), vehicle: Klucel (hydroxypropylcellulose) (HPC)) 121 % of control; (dose: 100.0 mg/kg/injection, schedule: Q04DX003 (ip), vehicle: Klucel (hydroxypropylcellulose) (HPC)) 83 % of control; (dose: 200.0 mg/kg/injection, schedule: Q04DX003 (ip), vehicle: Klucel (hydroxypropylcellulose) (HPC)) 82 % of control.
